According to US11427553B2, “Dihydrooxadiazinones” (Bayer Aktiengesellschaft, priority 2017, dated 2022):
Structures can show the parent of a compound that is named as a salt.

Assays:
SK-MEL-3 cells = assay: Assay 1 cell proliferation measurement (CTG, 72 h), SK-MEL-3; format: cell-based, human; conditions: Homo sapiens, SK-MEL3; Assay 1, 72 h, Cell Titer Glo; read-out: SK-MEL-3 IC50 [nM] (melanoma)
In short: (§1)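 Seed cells, incubate overnight at 37 °C; measure baseline viability (CTG, 0 h plate); dose compound in a 10-step 2.5-fold series (max generally 100 nM final, DMSO 0.3%) for 72 h; read CTG luminescence; fit IC50 with 4 parameters.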

human full length PDE3A = human full length PDE3A (Homo sapiens (Human), UniProt Q14432); assay: Assay 4 PDE3A enzyme inhibition (3H-cAMP SPA); format: biochemical; conditions: Sf9 cell extract
In short: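 In this SPA format, the 60-min room-temperature reaction used 0.025 μCi [8-3H]cAMP and diluted full-length PDE3A from Sf9 cells. Percentage activity was plotted against log compound concentration to derive IC50.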

human full length PDE3B = human full length PDE3B (Homo sapiens (Human), UniProt Q13370); assay: Assay 5 PDE3B enzyme inhibition (3H-cAMP SPA); format: biochemical; conditions: Sf9 cell extract
In short: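 Sf9 cell extract expressing human full-length PDE3B, diluted for linear kinetics (<70% substrate use), in 50 mM Tris/HCl pH 7.5, 8.3 mM MgCl2, 1.7 mM EDTA. [8-3H]cAMP substrate, 60 min at room temperature; stopped with yttrium SPA beads, scintillation counting. IC50 from sigmoidal activity vs log concentration curves.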

HeLa cells = assay: Assay 1 cell proliferation measurement (CTG, 72 h), HeLa; format: cell-based, human; conditions: Homo sapiens, HeLa; Assay 1, 72 h, Cell Titer Glo; read-out: HeLa IC50 [nM] (Cervical cancer)
In short: as §1

human full length PDE3A, sequence (Q14432 whole entry): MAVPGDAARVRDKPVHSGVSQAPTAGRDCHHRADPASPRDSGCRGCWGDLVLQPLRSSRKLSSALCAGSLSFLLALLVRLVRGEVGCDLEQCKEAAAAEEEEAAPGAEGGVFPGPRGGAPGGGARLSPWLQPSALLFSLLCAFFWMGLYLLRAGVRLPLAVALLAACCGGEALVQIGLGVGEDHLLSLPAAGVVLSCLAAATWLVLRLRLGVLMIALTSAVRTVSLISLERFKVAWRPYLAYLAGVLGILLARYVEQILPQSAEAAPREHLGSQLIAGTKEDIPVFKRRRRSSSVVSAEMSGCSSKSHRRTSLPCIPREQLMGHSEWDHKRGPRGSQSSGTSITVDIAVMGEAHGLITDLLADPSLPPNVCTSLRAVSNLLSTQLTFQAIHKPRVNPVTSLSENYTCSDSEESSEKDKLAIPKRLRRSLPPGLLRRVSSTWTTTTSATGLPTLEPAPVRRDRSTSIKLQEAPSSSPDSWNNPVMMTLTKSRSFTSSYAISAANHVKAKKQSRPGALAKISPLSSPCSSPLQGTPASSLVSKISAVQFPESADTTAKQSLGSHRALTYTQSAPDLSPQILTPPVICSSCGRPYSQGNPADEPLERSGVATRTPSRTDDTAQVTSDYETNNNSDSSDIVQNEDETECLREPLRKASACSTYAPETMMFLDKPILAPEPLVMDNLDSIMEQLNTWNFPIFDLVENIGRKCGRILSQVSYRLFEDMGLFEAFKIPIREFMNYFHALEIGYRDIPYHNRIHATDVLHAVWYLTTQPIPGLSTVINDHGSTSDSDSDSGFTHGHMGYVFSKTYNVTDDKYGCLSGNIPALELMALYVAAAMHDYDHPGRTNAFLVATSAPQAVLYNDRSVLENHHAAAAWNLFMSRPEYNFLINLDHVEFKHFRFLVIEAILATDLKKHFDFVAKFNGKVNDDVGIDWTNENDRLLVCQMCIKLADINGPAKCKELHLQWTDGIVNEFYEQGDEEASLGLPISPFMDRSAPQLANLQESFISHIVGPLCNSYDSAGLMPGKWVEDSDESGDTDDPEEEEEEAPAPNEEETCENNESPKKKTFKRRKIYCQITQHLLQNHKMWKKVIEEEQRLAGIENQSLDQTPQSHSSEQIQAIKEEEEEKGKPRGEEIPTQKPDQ
human full length PDE3B, sequence (Q13370 whole entry): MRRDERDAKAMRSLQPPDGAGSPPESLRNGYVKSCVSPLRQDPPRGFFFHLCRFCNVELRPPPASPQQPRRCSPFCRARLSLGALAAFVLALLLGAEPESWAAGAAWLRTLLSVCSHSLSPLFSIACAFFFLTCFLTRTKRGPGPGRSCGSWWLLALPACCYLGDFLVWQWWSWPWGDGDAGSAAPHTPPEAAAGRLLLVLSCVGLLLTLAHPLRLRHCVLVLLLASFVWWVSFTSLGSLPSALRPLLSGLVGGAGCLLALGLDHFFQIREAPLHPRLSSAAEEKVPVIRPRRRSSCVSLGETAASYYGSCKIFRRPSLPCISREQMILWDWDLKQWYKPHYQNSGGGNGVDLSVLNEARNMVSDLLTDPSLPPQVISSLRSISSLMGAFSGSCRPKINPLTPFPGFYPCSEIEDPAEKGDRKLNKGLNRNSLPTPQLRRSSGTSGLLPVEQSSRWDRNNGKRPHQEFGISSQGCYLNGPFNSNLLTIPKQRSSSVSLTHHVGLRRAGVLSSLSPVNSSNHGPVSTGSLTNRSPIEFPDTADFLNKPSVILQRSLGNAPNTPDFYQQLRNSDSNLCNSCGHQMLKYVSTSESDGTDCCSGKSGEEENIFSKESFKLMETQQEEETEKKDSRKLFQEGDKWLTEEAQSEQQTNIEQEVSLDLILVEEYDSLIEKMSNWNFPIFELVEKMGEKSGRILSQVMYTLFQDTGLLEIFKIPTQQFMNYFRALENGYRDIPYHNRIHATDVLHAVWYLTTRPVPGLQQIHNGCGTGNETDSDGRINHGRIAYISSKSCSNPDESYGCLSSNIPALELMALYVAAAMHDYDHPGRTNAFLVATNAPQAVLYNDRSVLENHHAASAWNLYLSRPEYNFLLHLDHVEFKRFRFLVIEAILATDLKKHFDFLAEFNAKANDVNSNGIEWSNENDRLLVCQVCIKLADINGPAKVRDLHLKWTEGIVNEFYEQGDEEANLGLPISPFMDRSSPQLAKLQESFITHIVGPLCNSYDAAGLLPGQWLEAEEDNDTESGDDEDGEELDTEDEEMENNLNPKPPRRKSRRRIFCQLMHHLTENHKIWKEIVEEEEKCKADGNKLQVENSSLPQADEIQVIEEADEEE

Compound	IC50 (SK-MEL-3 cells) [nM]	IC50 (human full length PDE3A) [nM]	IC50 (human full length PDE3B) [nM]	IC50 (HeLa cells) [nM]
O=C1NN=C(c2ccc(NCC3(O)CCC3)c(C(F)(F)F)c2)CO1 [Example 219, 5-[4-{[(1-Hydroxycyclobutyl)methyl]amino}-3-(trifluoromethyl)phenyl]-3,6-dihydro-2H-1,3,4-oxadiazin-2-one]	13	58	97	8
O=C1NN=C(c2ccc(-c3ccc(F)cc3)c(F)c2)CO1 [Example 30, 5-(2,4′-Difluorobiphenyl-4-yl)-3,6-dihydro-2H-1,3,4-oxadiazin-2-one]	4	99	79	1
CCn1cnc(-c2ccc(C3=NNC(=O)OC3)cc2C(F)(F)F)c1 [Example 151, 5-[4-(1-Ethyl-1H-imidazol-4-yl)-3-(trifluoromethyl)phenyl]-3,6-dihydro-2H-1,3,4-oxadiazin-2-one]	5	69	159	5
O=C1NN=C(c2ccc(-c3ccc(C(F)(F)F)nc3)c(C(F)(F)F)c2)CO1 [Example 36, 5-{3-(Trifluoromethyl)-4-[6-(trifluoromethyl)pyridin-3-yl]phenyl}-3,6-dihydro-2H-1,3,4-oxadiazin-2-one]	39	280	320	23
O=C1NN=C(c2ccc(-c3ccc(F)c(F)c3)c(F)c2)CO1 [Example 107, 5-(2,3′,4′-Trifluoro[1,1′-biphenyl]-4-yl)-3,6-dihydro-2H-1,3,4-oxadiazin-2-one]	12	150	160	6
CC1CC(C)N1c1ccc(C2=NNC(=O)OC2)cc1C(F)(F)F (racemic) [Example 207, (rac)-5-{4-[2,4-Dimethylazetidin-1-yl]-3-(trifluoromethyl)phenyl}-3,6-dihydro-2H-1,3,4-oxadiazin-2-one]	14	74	180	9
C[C@@H]1OC(=O)NN=C1c1ccc(N2CCOCC2)c(F)c1 [Example 25-1, (6S)-5-(3-Fluoro-4-morpholinophenyl)-6-methyl-3,6-dihydro-2H-1,3,4-oxadiazin-2-one]	3	44	22	2
Cc1n[nH]c2cc(-c3ccc(C4=NNC(=O)OC4)cc3C(F)(F)F)ccc12 [Example 327, 5-[4-(3-methyl-1H-indazol-6-yl)-3-(trifluoromethyl)phenyl]-3,6-dihydro-2H-1,3,4-oxadiazin-2-one]	> 100	11	16	> 100
NC12CC1CN(c1ccc(C3=NNC(=O)OC3)cc1C(F)(F)F)C2 (racemic) [Example 275, (rac)-5-{4-[1-amino-3-azabicyclo[3.1.0]hexan-3-yl]-3-(trifluoromethyl)phenyl}-3,6-dihydro-2H-1,3,4-oxadiazin-2-one-salt with hydrochloric acid]	7	29	64	5
O=C1NN=C(c2ccc(-c3ccc(Cl)cn3)c(C(F)(F)F)c2)CO1 [Example 159, 5-[4-(5-Chloropyridin-2-yl)-3-(trifluoromethyl)phenyl]-3,6-dihydro-2H-1,3,4-oxadiazin-2-one]	22	> 1000	> 1000	11
O=C1NN=C(c2ccc(N3CCC3)c(C(F)(F)F)c2)CO1 [Example 72, 5-[4-(Azetidin-1-yl)-3-(trifluoromethyl)phenyl]-3,6-dihydro-2H-1,3,4-oxadiazin-2-one]	5	74	180	2
CN(C)CCN(C)c1ccc(C2=NNC(=O)OC2)cc1C(F)(F)F [Example 324, 5-[4-{[2-(dimethylamino)ethyl](methyl)amino}-3-(trifluoromethyl)phenyl]-3,6-dihydro-2H-1,3,4-oxadiazin-2-one]	> 100	> 1000	> 1000	> 100
O=C1NN=C(c2ccc(C3=CCOC3)c(C(F)(F)F)c2)CO1 [Example 149, 5-[4-(2,5-Dihydrofuran-3-yl)-3-(trifluoromethyl)phenyl]-3,6-dihydro-2H-1,3,4-oxadiazin-2-one]	4	163	132	2
CC1OC(=O)NN=C1c1cc(F)c(N2CCOCC2)c(F)c1 (racemic) [Example 17, (rac)-5-[3,5-Difluoro-4-(morpholin-4-yl)phenyl]-6-methyl-3,6-dihydro-2H-1,3,4-oxadiazin-2-one]	17	25	17	7
CC1(CNc2ccc(C3=NNC(=O)OC3)cc2C(F)(F)F)COC1 [Example 213, 5-[4-{[(3-Methyloxetan-3-yl)methyl]amino}-3-(trifluoromethyl)phenyl]-3,6-dihydro-2H-1,3,4-oxadiazin-2-one]	21	68	71	14
COc1ccccc1-c1ccc(C2=NNC(=O)OC2)cc1F [Example 116, 5-(2-Fluoro-2′-methoxy[1,1′-biphenyl]-4-yl)-3,6-dihydro-2H-1,3,4-oxadiazin-2-one]	35	79	76	16
O=C1NN=C(c2ccc(-c3cccnc3)c(C(F)(F)F)c2)CO1 [Example 33, 5-[4-(Pyridin-3-yl)-3-(trifluoromethyl)phenyl]-3,6-dihydro-2H-1,3,4-oxadiazin-2-one]	10	65	80	6
O=C1NN=C(c2ccc(-c3c(F)cccc3F)c(F)c2)CO1 [Example 115, 5-(2,2′,6′-Trifluoro[1,1′-biphenyl]-4-yl)-3,6-dihydro-2H-1,3,4-oxadiazin-2-one]	7	92	100	4
O=C1NN=C(c2ccc(NC3CCCC3)c(C(F)(F)F)c2)CO1 [Example 136, 5-[4-(Cyclopentylamino)-3-(trifluoromethyl)phenyl]-3,6-dihydro-2H-1,3,4-oxadiazin-2-one]	1	32	27	0.3
O=C1NN=C(c2ccc(N3CCC(F)(F)C3)c(F)c2)CO1 [Example 26, 5-[4-(3,3-Difluoropyrrolidin-1-yl)-3-fluorophenyl]-3,6-dihydro-2H-1,3,4-oxadiazin-2-one]	29	700	270	9
Cc1ccc(-c2ccc(C3=NNC(=O)OC3)cc2F)cc1 [Example 88, 5-(2-Fluoro-4′-methylbiphenyl-4-yl)-3,6-dihydro-2H-1,3,4-oxadiazin-2-one]	6	110	250	2
Nc1cc(-c2ccc(C3=NNC(=O)OC3)cc2C(F)(F)F)ccc1Cl [Example 41, 5-[3′-Amino-4′-chloro-2-(trifluoromethyl)biphenyl-4-yl]-3,6-dihydro-2H-1,3,4-oxadiazin-2-one]	21	31	31	10
COc1nc(C)ccc1-c1ccc(C2=NNC(=O)OC2)cc1C(F)(F)F [Example 53, 5-[4-(2-Methoxy-6-methylpyridin-3-yl)-3-(trifluoromethyl)phenyl]-3,6-dihydro-2H-1,3,4-oxadiazin-2-one]	13000	580	390	36
CC(C)(C)/C=C/c1ccc(C2=NNC(=O)OC2)cc1C(F)(F)F [Example 144, 5-{4-[3,3-Dimethylbut-1-en-1-yl]-3-(trifluoromethyl)phenyl}-3,6-dihydro-2H-1,3,4-oxadiazin-2-one]	13	55	100	6
Cc1ccc(-c2ccc(C3=NNC(=O)O[C@H]3C)cc2C(F)(F)F)cn1 [Example 167, (6S)-6-Methyl-5-[4-(6-methylpyridin-3-yl)-3-(trifluoromethyl)phenyl]-3,6-dihydro-2H-1,3,4-oxadiazin-2-one]	6	34	66	4
O=C1NN=C(c2ccc(-c3ccc(C(F)(F)F)s3)c(C(F)(F)F)c2)CO1 [Example 156, 5-{3-(Trifluoromethyl)-4-[5-(trifluoromethyl)thiophen-2-yl]phenyl}-3,6-dihydro-2H-1,3,4-oxadiazin-2-one]	68	440	650	55
O=C1NN=C(c2ccc(-c3cn[nH]c3)c(C(F)F)c2)CO1 [Example 202, 5-(3-(difluoromethyl)-4-(1H-pyrazol-4-yl)phenyl)-3H-1,3,4-oxadiazin-2(6H)-one]	12	76	63	5
NCCNc1ccc(C2=NNC(=O)OC2)cc1C(F)(F)F [Example 274, 5-{4-[(2-Aminoethyl)amino]-3-(trifluoromethyl)phenyl}-3,6-dihydro-2H-1,3,4-oxadiazin-2-one-salt with hydrochloric acid]	31	300	400	19
